Source: patent US6069240A, “Cloning by complementation and related processes” (priority 1998, dated 2000)
Entries after “also recorded” stand apart in the source; their conditions may differ. Read-outs that look alike come from different tables or passages of the source.

How the values were obtained:
[1] = biological target: T1, DPDE4 (plasmid pADH72C) (Homo sapiens, UniProt Q07343); settings: 1 μM 3H cAMP, SD in parentheses
Experimental: (§1) The IC50 was determined by fitting the data to either a four-parameter model, or a two-parameter model, as described above. Wherever possible, the four-parameter model was used, because it could provide an accurate fit to inhibitor curves that spanned a wide range of concentrations. Data sets that could not be fitted to the four-parameter model were fitted to the two-parameter model. […] The values in parentheses represent the standard deviation of the mean for each experiment.

[2] = system: DPDE2 (plasmid pADH46R, cDNA truncated at 5' end); settings: 1 μM 3H cAMP, SD in parentheses
Experimental: (§2) Values were determined in duplicate from three separate cell pellets. Each value for the Km represents the average of six determinations, with the standard deviation shown in parentheses. The specific activity at Vmax is reported as the range of determinations for the six experiments.
(§3) The IC50 was determined by fitting the data to either a four-parameter model, or a two-parameter model, as described above. Wherever possible, the four-parameter model was used, because it could provide an accurate fit to inhibitor curves that spanned a wide range of concentrations. Data sets that could not be fitted to the four-parameter model were fitted to the two-parameter model.

[3] = biological target: T2, dnc (plasmid pADDROSC, full-length) (Drosophila melanogaster, UniProt P12252); experiment: biochemical
T2 sequence (P12252 1-701 isoform P12252-3): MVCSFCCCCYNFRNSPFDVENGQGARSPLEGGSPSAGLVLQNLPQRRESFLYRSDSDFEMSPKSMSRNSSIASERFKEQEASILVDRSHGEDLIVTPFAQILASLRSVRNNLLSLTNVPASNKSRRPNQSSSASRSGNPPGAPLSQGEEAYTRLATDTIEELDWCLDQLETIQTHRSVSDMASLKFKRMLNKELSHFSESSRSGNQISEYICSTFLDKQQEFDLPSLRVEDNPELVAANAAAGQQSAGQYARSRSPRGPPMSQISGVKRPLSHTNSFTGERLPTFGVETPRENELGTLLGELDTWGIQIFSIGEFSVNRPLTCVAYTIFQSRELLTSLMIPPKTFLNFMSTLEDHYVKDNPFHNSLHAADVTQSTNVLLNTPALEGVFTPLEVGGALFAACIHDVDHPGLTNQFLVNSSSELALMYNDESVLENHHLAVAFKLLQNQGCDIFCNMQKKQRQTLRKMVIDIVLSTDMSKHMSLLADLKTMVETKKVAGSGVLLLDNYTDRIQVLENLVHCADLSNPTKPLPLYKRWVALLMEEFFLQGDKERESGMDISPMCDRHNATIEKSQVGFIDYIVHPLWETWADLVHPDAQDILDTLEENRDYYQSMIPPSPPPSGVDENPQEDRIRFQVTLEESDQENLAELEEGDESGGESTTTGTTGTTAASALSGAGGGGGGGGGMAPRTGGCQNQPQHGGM
Experimental: as §2, §3

[4] = system: DPDE4 (plasmid pADH72, cDNA truncated at 5' end); settings: 1 μM 3H cAMP, SD in parentheses
Experimental: as §2, §3

[5] = system: human dunce-like PDEs (three human clones); experiment: Inhibition and kinetics of the human dunce-like PDEs; type: biochemical; settings: for IC50s fold higher than for their specific PDE classes: compared with literature values for the inhibitors' own PDE classes; for IC50: range over the human clones, read-out: IC50s for the human clones
Experimental: as §2, §3

[6] = system: dnc (plasmid pADDROSF, cDNA truncated at 5' end); experiment: Hydrolysis of 3H cAMP by yeast extracts (Dunce-like PDE clones); type: biochemical, Drosophila; settings: 1 μM 3H cAMP, SD in parentheses
Experimental: as §2, §3

[7] = system: DPDE3 (plasmid pADH43, cDNA truncated at 5' end); settings: 1 μM 3H cAMP, SD in parentheses
Experimental: as §2, §3

[8] = system: Drosophila dnc encoded PDEs; experiment: Inhibition and kinetics of dnc encoded PDEs; type: biochemical; settings: dnc gene product
Experimental: as §1

[9] = biological target: pJC44x human cyclic AMP phosphodiesterase; experiment: Phosphodiesterase activity of 10DAB yeast extract expressing human cDNA (kinetics, inhibitor sensitivity); settings: read-out: EC50 (inhibitor concentration at 50% enzyme velocity); 1.0 μM cAMP
[10] = biological target: pL22 Met (pTM22-like) human cyclic AMP phosphodiesterase (Homo sapiens, UniProt Q13946); experiment: as above
Sequence of pL22 Met (pTM22-like) human cyclic AMP phosphodiesterase (Q13946 with tags, fused parts or gaps): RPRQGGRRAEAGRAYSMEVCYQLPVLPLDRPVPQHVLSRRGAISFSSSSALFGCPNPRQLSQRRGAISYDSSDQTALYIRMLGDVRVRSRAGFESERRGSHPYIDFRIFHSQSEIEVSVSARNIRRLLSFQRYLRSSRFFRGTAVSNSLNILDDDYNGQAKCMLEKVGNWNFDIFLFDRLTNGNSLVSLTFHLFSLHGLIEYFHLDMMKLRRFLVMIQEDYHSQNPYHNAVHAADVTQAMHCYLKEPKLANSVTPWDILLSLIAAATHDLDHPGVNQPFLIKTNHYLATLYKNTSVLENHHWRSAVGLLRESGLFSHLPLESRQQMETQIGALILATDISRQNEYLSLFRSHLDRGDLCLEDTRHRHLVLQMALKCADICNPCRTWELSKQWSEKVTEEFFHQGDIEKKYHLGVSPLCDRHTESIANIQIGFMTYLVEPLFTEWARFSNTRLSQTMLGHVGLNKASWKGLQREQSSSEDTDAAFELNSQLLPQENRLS

[11] = biological target: T1, DPDE4 (plasmid pADH72C); experiment: biochemical
Experimental: as §1

[12] = biological target: T3, pRATDPD gene product (rat DPD cAMP phosphodiesterase) (Rattus norvegicus, UniProt P14646); settings: cGMP 100 fold over substrate concentration (5 μM cAMP, cGMP up to 500 μM)
T3 sequence (P14646 220-736): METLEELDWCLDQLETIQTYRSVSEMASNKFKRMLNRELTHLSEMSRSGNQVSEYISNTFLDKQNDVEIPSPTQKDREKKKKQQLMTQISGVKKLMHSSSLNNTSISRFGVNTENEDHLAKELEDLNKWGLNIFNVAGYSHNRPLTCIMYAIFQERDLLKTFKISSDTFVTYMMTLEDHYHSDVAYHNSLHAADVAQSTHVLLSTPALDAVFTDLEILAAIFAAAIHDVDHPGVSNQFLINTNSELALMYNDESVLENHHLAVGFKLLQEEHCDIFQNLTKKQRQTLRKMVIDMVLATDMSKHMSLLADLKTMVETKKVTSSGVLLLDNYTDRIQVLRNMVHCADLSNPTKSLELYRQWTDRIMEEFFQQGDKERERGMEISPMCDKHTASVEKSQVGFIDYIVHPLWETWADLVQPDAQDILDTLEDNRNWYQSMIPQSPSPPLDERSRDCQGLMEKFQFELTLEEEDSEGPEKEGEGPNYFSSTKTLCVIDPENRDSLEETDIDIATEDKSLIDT
Experimental: Yeast cells were grown at 30° C. for 36 hours in one liter cultures of synthetic media (SC-leucine). Cells were harvested and washed with buffer C (20 mM MES (pH 6.2), 0.1 mM MgCl2, 0.1 mM EGTA, 1 mM β-mercaptoethanol), were resuspended in 30 ml buffer C with 50 μl 1 M PMSF, and were disrupted with a French press. The extracts were centrifuged at 1,600×g for 10 min and the supernatants were spun at 18,000×g for 90 min (4° C.). The supernatant was assayed for phosphodiesterase activity as in Collicelli et al., supra. All the reactions contained Tris-HCl (pH7.5) (100 mM), cell extract (50 μg protein/ml), 5'-nucleotidase (Sigma, 20 ng/ml) and 10 mM Mg^2+ (unless otherwise stated) and the indicated cyclic nucleotide concentrations. […] The assay conditions were varied to ascertain the cation preferences of the enzyme and to determine the ability of calcium and calmodulin to stimulate its activity.

[13] = system: yeast strain 10DAB transformed with pAD72 (human family IV phosphodiesterase); experiment: Whole cell screen: heat treatment viability of transformed yeast; settings: 2 h at 30° C. then 50° C. for 30 min; for effect on viable cells of the culture after heat treatment (in words): concentrations up to 100 μM
Experimental: The following procedure was applied to the screening of whole transformed host cells. […] Aliquots of this culture (300 μl) were taken and mixed with 4.8 μl 10% DMSO or 10% DMSO containing an appropriate concentration of phosphodiesterase inhibitor. The treated cultures were then incubated for two hours at 30° C., after which two 3 μl aliquots were removed and transferred to an SC-leucine agar plate. Then, a 100 μl aliquot was removed from the treated cultures and transferred to a glass 12×75 mm test tube and the test tubes were incubated at 50° C. in a mineral oil-containing hot block for 30 min. The test tubes were removed from the hot block and placed at room temperature. Two 3 μl aliquots were removed and transferred to an SC-leucine plate. The agar plates were then incubated at 30° C. and examined at various times to evaluate growth.

[14] = biological target: T4, rat DPD phosphodiesterase (Rattus norvegicus, UniProt P14646); experiment: Inhibition of phosphodiesterases by chemicals, cell free extracts of 10DAB yeast; type: biochemical
T4 construct: A large open reading frame of 562 codons was found; The first ATG appears at codon 46; made in house; host or cells: S. cerevisiae 10DAB (pde1-, pde2-), crude extract, vector pADNS
T4 sequence (P14646 220-736): T3 sequence (P14646 220-736)
Experimental: (§4) To test the efficiency of known inhibitory compounds, cell free extracts were made. Yeast cells deficient in endogenous phosphodiesterase (10DAB), and expressing the rat DPD or yeast PDE2 genes from the described expression vector, were used. One liter cultures were harvested, washed in buffer C (20 mM MES(pH 6.2)/0.1 mM MgCl2 /0. 1 mM EGTA/1 mM 2-mercaptoethanol), resuspended in buffer C containing 1.5 mM phenylmethylsulfonyl fluoride (PMSF), and disrupted in a French press at 4° C. Cell extracts were clarified at 100×g for 10 minutes and at 18000×g for 90 minutes.

[15] = biological target: yeast PDE2 (Saccharomyces cerevisiae, UniProt P06776); experiment: as above
Sequence of yeast PDE2 (P06776 whole entry): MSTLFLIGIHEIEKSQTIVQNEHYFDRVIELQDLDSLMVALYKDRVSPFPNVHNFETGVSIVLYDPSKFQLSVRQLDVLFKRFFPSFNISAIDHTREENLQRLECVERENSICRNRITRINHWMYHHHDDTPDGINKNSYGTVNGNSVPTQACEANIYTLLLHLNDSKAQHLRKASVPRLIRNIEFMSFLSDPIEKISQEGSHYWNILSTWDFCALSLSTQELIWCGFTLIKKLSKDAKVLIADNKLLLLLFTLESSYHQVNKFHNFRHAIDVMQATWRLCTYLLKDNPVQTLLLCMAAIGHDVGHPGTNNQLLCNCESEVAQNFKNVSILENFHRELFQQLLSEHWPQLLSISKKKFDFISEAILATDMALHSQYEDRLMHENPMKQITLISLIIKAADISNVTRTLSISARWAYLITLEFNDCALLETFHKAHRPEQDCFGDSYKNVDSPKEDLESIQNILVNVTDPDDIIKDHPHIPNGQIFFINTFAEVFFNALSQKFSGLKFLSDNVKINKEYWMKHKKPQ
Experimental: as §4

[16] = system: cAMP phosphodiesterases encoded by cDNAs of pTM3, pTM72, pJC44x and pRATDPD; experiment: Biochemical analysis of cell lysates
[17] = system: 10DAB cells expressing the cDNA of pRATDPD; experiment: Heat shock sensitivity of yeast expressing rat DPD; type: cell-based, S. cerevisiae; settings: 100 μM for 40 minutes, then 50° C. for 30 minutes
Experimental: 10DAB cells, which are phosphodiesterase deficient, are sensitive to heat shock. As already discussed, when these cells acquire the capacity to express the cDNA of pRATDPD, they become resistant to heat shock. 10DAB cells expressing the cDNA of pRATDPD were maintained in rich medium (YPD) for three days at stationary phase. […] Control cultures were not treated with any inhibitor. These cultures were then heat shocked in glass tubes at 50° C. […] for 30 minutes. One microliter of each culture was plated.

[18] = system: yeast containing RAS2^va119 expressing the rat DPD gene; experiment: Heat shock phenotype reversal screen; type: cell-based; settings: resistant cells incubated in agent
Source text: The second type of pharmacological screen is applicable even when the mammalian gene encodes a protein of undetermined function, and, thus, cannot be assayed by a biochemical activity. In this method, agents to be tested are applied or introduced directly to the genetically altered microbial host expressing the mammalian protein. Agents capable of inhibiting the mammalian gene or gene product are identified by their ability to reverse the phenotype originally corrected by expression of the mammalian protein in the altered host.
This procedure has been used for mammalian cDNAs encoding cyclic nucleotide phosphodiesterases and a yeast containing RAS2^va119 as the host strain. When the rat DPD gene is introduced into the heat shock sensitive host and expressed, the host strain becomes heat shock resistant. […] This same approach can be applied to assess other genes.

T1 sequence (Q07343 whole entry, the tested form may be a part): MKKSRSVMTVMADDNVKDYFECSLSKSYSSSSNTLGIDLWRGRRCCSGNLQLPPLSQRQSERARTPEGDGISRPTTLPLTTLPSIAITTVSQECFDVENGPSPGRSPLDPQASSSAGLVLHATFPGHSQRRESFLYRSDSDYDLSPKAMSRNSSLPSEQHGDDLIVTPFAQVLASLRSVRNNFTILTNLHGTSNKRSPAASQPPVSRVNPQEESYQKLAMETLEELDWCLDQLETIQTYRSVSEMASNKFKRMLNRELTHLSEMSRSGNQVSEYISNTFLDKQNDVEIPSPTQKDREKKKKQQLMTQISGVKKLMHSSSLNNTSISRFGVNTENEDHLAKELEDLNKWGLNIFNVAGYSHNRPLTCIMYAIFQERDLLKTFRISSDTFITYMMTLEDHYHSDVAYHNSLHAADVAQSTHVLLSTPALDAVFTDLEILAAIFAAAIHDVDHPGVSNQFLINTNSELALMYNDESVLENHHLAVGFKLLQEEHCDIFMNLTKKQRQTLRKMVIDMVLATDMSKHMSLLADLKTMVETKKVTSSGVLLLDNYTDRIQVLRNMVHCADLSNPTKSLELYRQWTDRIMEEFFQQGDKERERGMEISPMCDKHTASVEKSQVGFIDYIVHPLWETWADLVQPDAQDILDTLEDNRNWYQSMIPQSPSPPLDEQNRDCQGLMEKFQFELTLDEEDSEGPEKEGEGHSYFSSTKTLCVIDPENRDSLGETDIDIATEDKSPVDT

SMILES | IC50 [2] | IC50 [4] | IC50s fold higher than for their specific PDE classes [5] | IC50 [6] | IC50 [7] | IC50 [8] | IC50 ([3]; read-out: IC50) | IC50 [5] | EC50 [9] | EC50 [10] | other results
COCc1nc2c([nH]1)c(=O)n(C)c(=O)n2CC(C)C [8-Methoxy IBMX] | 220 µM | 220 µM | 10 to 1000 fold | 120 µM | 160 µM |  |  |  |  |  | IC50 [1]: 190 µM; IC50 ([3]; pADDR, 1 μM 3H cAMP, SD in parentheses, read-out: IC50): 170 µM
CCCCn1c(=O)c2c(ncn2CC(C)=O)n(CCCC)c1=O [Denbufylline] | 0.22 µM | 0.2 µM |  | 1.5 µM | 0.1 µM | 1 to 3 µM | 3 µM | 1 to 10 µM |  |  | 
Nc1nc2c(ncn2[C@@H]2O[C@@H]3COP(=O)(O)O[C@H]3[C@H]2O)c(=O)[nH]1 [cGMP] | > 1000 µM | > 1000 µM |  | > 1000 µM | > 1000 µM |  | > 1000 µM |  | > 300 µM | > 300 µM | IC50 [11]: > 1000 µM; inhibition of cAMP phosphodiesterase activity by cGMP [12]: did not inhibit
CN(C(=O)CCCOc1ccc2[nH]c(=O)ccc2c1)C1CCCCC1 [Cilostamide] | 140 µM | 55 µM | 10 to 1000 fold | > 1000 µM | 90 µM |  | > 1000 µM |  |  |  | 
Cc1[nH]c(=O)c(C#N)cc1-c1ccncc1 [Milrinone] | 59 µM |  |  | > 1000 µM | 16 µM |  | > 1000 µM |  | 30 µM | 30 µM | effect on viable cells of the culture after heat treatment (in words) [13]: no observable effect
Cn1c(=O)c2[nH]cnc2n(C)c1=O [Theophylline] |  |  |  |  |  |  |  |  | 300 µM |  | 
CCCCOc1cc(CC2CNC(=O)N2)ccc1OC (centres unmarked) [RO 20-1724] |  |  |  |  |  | 1000 µM |  | 1 to 10 µM | 3 µM | > 300 µM | inhibition at 0.1 µM [14]: 35%; inhibition at 1 µM [14]: 52%; inhibition at 10 µM [14]: 79%; inhibition at 100 µM [14]: 92%; inhibition of rat DPD enzymatic activity (in words) ([14]; listed as R020 1724): readily inhibited; also recorded: most effective inhibitors; inhibition at 100 µM [15]: 3%
CCCOc1ccccc1-c1nc2nn[nH]c2c(=O)[nH]1 [Zaprinast] | 120 µM | 90 µM | 10 to 1000 fold | 130 µM | 88 µM |  | 58 µM |  |  |  | 
COc1ccc(C2CNC(=O)C2)cc1OC1CCCC1 (centres unmarked) [Rolipram] | 0.5 µM | […] |  | > 1000 µM | 0.18 µM | 1000 µM |  | 0.2 to 0.5 µM | […] | > 300 µM | sensitivity of the cAMP phosphodiesterases to the agent (in words) [16]: sensitive; IC50 [3]: > 740 µM; sensitivity to heat shock (in words) [17]: much more sensitive to heat shock; heat shock phenotype (in words) [18]: become heat shock sensitive again; inhibition of rat DPD enzymatic activity (in words) [14]: readily inhibited; also recorded: most effective inhibitors; cells remaining viable out of approximately 150,000 cells ([13]; 100 μM): less than 10 cells; effect on viable cells of the culture after heat treatment (in words) [13]: reduced the number of viable cells
CC(C)Cn1c(=O)n(C)c(=O)c2[nH]cnc21 [IBMX] | 9.3 µM | 15 µM |  | 11 µM | 10 µM |  | 12 µM |  |  |  | inhibition of the human dunce-like PDEs (in words) ([5]; no detectable difference in IC50 between clones): inhibited; inhibition at 250 µM [14]: 87%; IC50 [11]: 11 µM; inhibition at 250 µM [15]: 0%
